Reference: US20240174659A1, “COMPOUNDS AND METHODS FOR YAP/TEAD MODULATION AND INDICATIONS THEREFOR” (Opna Bio SA, priority 2021, published 2024)

System: TEAD-dependent transcription
Test: Inhibitor activity against TEAD-dependent transcription in a cell-based reporter assay (MSTO-211H+12XGTIIC luciferase)
Conditions: Homo sapiens; MSTO-211H+12XGTIIC cells, 24 hours incubation, luciferase luminescence normalized to cell viability fluorescence, geometric mean; read-out: MSTO-211H GMean IC50 (uM) Cell Assay Reporter Cell Variant: TEAD
Summary of the method: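 MSTO-211H mesothelioma cells stably carrying a 12xGTIIC TEAD-response-element luciferase reporter, treated with serial compound dilutions for 24 h at 37 °C. Luminescence normalized to CellTiter-Fluor viability signal; % inhibition versus DMSO and 20 μM K-975 controls, IC50 by nonlinear regression.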

Row | Structure (SMILES) | IC50
1 | C=CC(=O)N1CCc2ccc(OCC3CC4C(C3)C4(F)F)cc2C1 (centres unmarked) [P-0111, 1-(7-((6,6-difluorobicyclo[3.1.0]hexan-3-yl)methoxy)-3,4-dihydroisoquinolin-2(1H)-yl)prop-2-en-1-one] | 0.001 to 0.5 µM
2 | C=CC(=O)N1Cc2cc(Oc3ccc(C(F)(F)F)cc3)ccc2C[C@H]1C(=O)OC [P-0112, methyl (S)-2-acryloyl-7-(4-(trifluoromethyl)phenoxy)-1,2,3,4-tetrahydroisoquinoline-3-carboxylate] | 0.001 to 0.5 µM
3 | C=CC(=O)N1CCc2c(F)cc(Oc3ccc(C(F)(F)F)cc3)cc2C1 [P-0113, 1-(5-fluoro-7-(4-(trifluoromethyl)phenoxy)-3,4-dihydroisoquinolin-2(1H)-yl)prop-2-en-1-one] | 0.001 to 0.5 µM
4 | C=CS(=O)(=O)N1CCc2ccc(Oc3ccc(C(F)(F)F)cc3)cc2C1 [P-0114, 7-(4-(trifluoromethyl)phenoxy)-2-(vinylsulfonyl)-1,2,3,4-tetrahydroisoquinoline] | 0.5 to 20 µM
5 | C=CC(=O)N1CCc2ccc(Oc3ccc(C#N)cc3)cc2C1 [P-0115, 4-((2-acryloyl-1,2,3,4-tetrahydroisoquinolin-7-yl)oxy)benzonitrile] | 0.001 to 0.5 µM
6 | CN(C)C/C=C/C(=O)N1CCc2ccc(Oc3ccc(C(F)(F)F)cc3)cc2C1 [P-0116, (E)-4-(dimethylamino)-1-(7-(4-(trifluoromethyl)phenoxy)-3,4-dihydroisoquinolin-2(1H)-yl)but-2-en-1-one] | 0.5 to 20 µM
7 | O=C(/C=C/CN1CCC1)N1CCc2ccc(Oc3ccc(C(F)(F)F)cc3)cc2C1 [P-0117, (E)-4-(azetidin-1-yl)-1-(7-(4-(trifluoromethyl)phenoxy)-3,4-dihydroisoquinolin-2(1H)-yl)but-2-en-1-one] | 0.5 to 20 µM
8 | O=C(/C=C/CN1CCCC1)N1CCc2ccc(Oc3ccc(C(F)(F)F)cc3)cc2C1 [P-0118, (E)-4-(pyrrolidin-1-yl)-1-(7-(4-(trifluoromethyl)phenoxy)-3,4-dihydroisoquinolin-2(1H)-yl)but-2-en-1-one] | 0.5 to 20 µM
9 | O=C(/C=C/Cn1ccnc1)N1CCc2ccc(Oc3ccc(C(F)(F)F)cc3)cc2C1 [P-0119, (E)-4-(1H-imidazol-1-yl)-1-(7-(4-(trifluoromethyl)phenoxy)-3,4-dihydroisoquinolin-2(1H)-yl)but-2-en-1-one] | 0.001 to 0.5 µM
10 | O=C(/C=C/CN1CCOCC1)N1CCc2ccc(Oc3ccc(C(F)(F)F)cc3)cc2C1 [P-0120, (E)-4-morpholino-1-(7-(4-(trifluoromethyl)phenoxy)-3,4-dihydroisoquinolin-2(1H)-yl)but-2-en-1-one] | 0.5 to 20 µM
11 | CN1CCN(C/C=C/C(=O)N2CCc3ccc(Oc4ccc(C(F)(F)F)cc4)cc3C2)CC1 [P-0121, (E)-4-(4-methylpiperazin-1-yl)-1-(7-(4-(trifluoromethyl)phenoxy)-3,4-dihydroisoquinolin-2(1H)-yl)but-2-en-1-one] | 0.5 to 20 µM
12 | C=C(C)C(=O)N1CCc2ccc(Oc3ccc(C(F)(F)F)cc3)cc2C1 [P-0122, 2-methyl-1-(7-(4-(trifluoromethyl)phenoxy)-3,4-dihydroisoquinolin-2(1H)-yl)prop-2-en-1-one] | 0.5 to 20 µM
13 | C/C=C/C(=O)N1CCc2ccc(Oc3ccc(C(F)(F)F)cc3)cc2C1 [P-0123, (E)-1-(7-(4-(trifluoromethyl)phenoxy)-3,4-dihydroisoquinolin-2(1H)-yl)but-2-en-1-one] | 0.001 to 0.5 µM
14 | C=C(Cl)C(=O)N1CCc2ccc(Oc3ccc(C(F)(F)F)cc3)cc2C1 [P-0124, 2-chloro-1-(7-(4-(trifluoromethyl)phenoxy)-3,4-dihydroisoquinolin-2(1H)-yl)prop-2-en-1-one] | 0.001 to 0.5 µM
15 | O=C(/C=C/Cl)N1CCc2ccc(Oc3ccc(C(F)(F)F)cc3)cc2C1 [P-0125, (E)-3-chloro-1-(7-(4-(trifluoromethyl)phenoxy)-3,4-dihydroisoquinolin-2(1H)-yl)prop-2-en-1-one] | 0.001 to 0.5 µM
16 | C=C(CO)C(=O)N1CCc2ccc(Oc3ccc(C(F)(F)F)cc3)cc2C1 [P-0126, 2-(hydroxymethyl)-1-(7-(4-(trifluoromethyl)phenoxy)-3,4-dihydroisoquinolin-2(1H)-yl)prop-2-en-1-one] | 0.001 to 0.5 µM
17 | C=C(C)S(=O)(=O)N1CCc2ccc(Oc3ccc(C(F)(F)F)cc3)cc2C1 [P-0127, 2-(prop-1-en-2-ylsulfonyl)-7-(4-(trifluoromethyl)phenoxy)-1,2,3,4-tetrahydroisoquinoline] | 0.001 to 0.5 µM
18 | C=CC(=O)N1CCc2ccc(Oc3ccc(C(F)(F)F)cc3)cc2C1=O [P-0128, 2-acryloyl-7-(4-(trifluoromethyl)phenoxy)-3,4-dihydroisoquinolin-1(2H)-one] | 0.001 to 0.5 µM
19 | C=CC(=O)N1CCc2ccc(OCc3ccc(F)c(F)c3)cc2C1 [P-0129, 1-(7-((3,4-difluorobenzyl)oxy)-3,4-dihydroisoquinolin-2(1H)-yl)prop-2-en-1-one] | > 20 µM
20 | C=CC(=O)N1CCc2ccc(OCC3CCC(F)(F)C3)cc2C1 (centres unmarked) [P-0130, 1-(7-((3,3-difluorocyclopentyl)methoxy)-3,4-dihydroisoquinolin-2(1H)-yl)prop-2-en-1-one] | 0.001 to 0.5 µM
